Data: US12083115B2, “Methods for treating neurological symptoms associated with lysosomal storage diseases” (Genzyme Corporation, priority 2020, dated 2024)
Like-named read-outs stand apart in the source and are kept apart here.

Assay: Study 1 Part 1: ascending single-dose PK in healthy men
Type: in vivo, human
Conditions: for Tmax / AUC(0-inf) / AUC(0-t) / Cmax / Vd/F / half-life: male, human, plasma, oral; for Tmax: N = 6, read-out: tmax, median
From the text: Study 1 was a 2-part single-center trial in healthy adult male volunteers.
Part 1 of the study enrolled and randomized 55 healthy men (placebo, n=14; 2-, 5-, 15, 25-, 50, and 100-mg doses, n=6 each; 150-mg dose, n=5). Eight healthy men participated in Part 2. […]

CC(C)(NC(=O)O[C@@H]1CN2CCC1CC2)c1csc(-c2ccc(F)cc2)n1 [Compound 2, (S)-quinuclidin-3-yl 2-(2-(4-fluorophenyl)thiazol-4-yl)propan-2-ylcarbamate]
CL/F, Geometric mean (CV) (2 mg single dose, N = 6): 6.3 (22.0) L/h
CL/F, Geometric mean (CV) (5 mg single dose, N = 6): 5.8 (17.3) L/h
CL/F, Geometric mean (CV) (15 mg single dose, N = 6): 5.6 (32.2) L/h
CL/F, Geometric mean (CV) (25 mg single dose, N = 6): 5.0 (25.3) L/h
tmax, median (25 mg single dose, N = 6): 5.00 h
CL/F, Geometric mean (CV) (50 mg single dose, N = 6): 5.5 (34.9) L/h
CL/F, Geometric mean (CV) (100 mg single dose, N = 6): 5.3 (23.4) L/h
tmax, median (100 mg single dose, N = 6): 3.00 h
CL/F, Geometric mean (CV) (150 mg single dose, N = 5): 5.6 (26.7) L/h
Tmax (2 mg single dose): 3.5 h
AUC(0-inf) (2 mg, 2 mg single dose, N = 6, read-out: AUCinf, Geometric mean (CV)): 237 ng·h/mL
AUC(0-inf) (2 mg, 2 mg single dose, N = 6, read-out: AUCinf, Mean (SD)): 243 ng·h/mL
AUC(0-t) (2 mg, 2 mg single dose, N = 6, read-out: AUClast, Geometric mean (CV)): 209 ng·h/mL
AUC(0-t) (2 mg, 2 mg single dose, N = 6, read-out: AUClast, Mean (SD)): 214 ng·h/mL
Cmax (2 mg, 2 mg single dose, N = 6, read-out: Cmax, Geometric mean (CV)): 5.6 ng/mL
Cmax (2 mg, 2 mg single dose, N = 6, read-out: Cmax, Mean (SD)): 5.7 ng/mL
Vd/F (2 mg, 2 mg single dose, N = 6, read-out: Vss/F, Geometric mean (CV)): 270 L
Vd/F (2 mg, 2 mg single dose, N = 6, read-out: Vss/F, Mean (SD)): 275 L
half-life (2 mg, 2 mg single dose, N = 6, read-out: t1/2, Geometric mean (CV) (converted)): 28.9 h
half-life (2 mg, 2 mg single dose, N = 6, read-out: t1/2, Mean (SD) (converted)): 29.2 h
Tmax (5 mg single dose): 5.5 h
AUC(0-inf) (5 mg, 5 mg single dose, N = 6, read-out: AUCinf, Geometric mean (CV)): 643 ng·h/mL
AUC(0-inf) (5 mg, 5 mg single dose, N = 6, read-out: AUCinf, Mean (SD)): 652 ng·h/mL
AUC(0-t) (5 mg, 5 mg single dose, N = 6, read-out: AUClast, Geometric mean (CV)): 556 ng·h/mL
AUC(0-t) (5 mg, 5 mg single dose, N = 6, read-out: AUClast, Mean (SD)): 560 ng·h/mL
Cmax (5 mg, 5 mg single dose, N = 6, read-out: Cmax, Geometric mean (CV)): 14.6 ng/mL
Cmax (5 mg, 5 mg single dose, N = 6, read-out: Cmax, Mean (SD)): 14.7 ng/mL
Vd/F (5 mg, 5 mg single dose, N = 6, read-out: Vss/F, Geometric mean (CV)): 273 L
Vd/F (5 mg, 5 mg single dose, N = 6, read-out: Vss/F, Mean (SD)): 274 L
half-life (5 mg, 5 mg single dose, N = 6, read-out: t1/2, Geometric mean (CV) (converted)): 32.5 h
half-life (5 mg, 5 mg single dose, N = 6, read-out: t1/2, Mean (SD) (converted)): 33.3 h
Tmax (15 mg single dose): 3.5 h
AUC(0-inf) (15 mg, 15 mg single dose, N = 6, read-out: AUCinf, Geometric mean (CV)): 1990 ng·h/mL
AUC(0-inf) (15 mg, 15 mg single dose, N = 6, read-out: AUCinf, Mean (SD)): 2070 ng·h/mL
AUC(0-t) (15 mg, 15 mg single dose, N = 6, read-out: AUClast, Geometric mean (CV)): 1760 ng·h/mL
AUC(0-t) (15 mg, 15 mg single dose, N = 6, read-out: AUClast, Mean (SD)): 1830 ng·h/mL
Cmax (15 mg, 15 mg single dose, N = 6, read-out: Cmax, Geometric mean (CV)): 50.7 ng/mL
Cmax (15 mg, 15 mg single dose, N = 6, read-out: Cmax, Mean (SD)): 53 ng/mL
Vd/F (15 mg, 15 mg single dose, N = 6, read-out: Vss/F, Geometric mean (CV)): 233 L
Vd/F (15 mg, 15 mg single dose, N = 6, read-out: Vss/F, Mean (SD)): 245 L
half-life (15 mg, 15 mg single dose, N = 6, read-out: t1/2, Geometric mean (CV) (converted)): 29 h
half-life (15 mg, 15 mg single dose, N = 6, read-out: t1/2, Mean (SD) (converted)): 29.7 h
AUC(0-inf) (25 mg, 25 mg single dose, N = 6, read-out: AUCinf, Geometric mean (CV)): 3690 ng·h/mL
AUC(0-inf) (25 mg, 25 mg single dose, N = 6, read-out: AUCinf, Mean (SD)): 3810 ng·h/mL
AUC(0-t) (25 mg, 25 mg single dose, N = 6, read-out: AUClast, Geometric mean (CV)): 3240 ng·h/mL
AUC(0-t) (25 mg, 25 mg single dose, N = 6, read-out: AUClast, Mean (SD)): 3380 ng·h/mL
Cmax (25 mg, 25 mg single dose, N = 6, read-out: Cmax, Geometric mean (CV)): 79.9 ng/mL
Cmax (25 mg, 25 mg single dose, N = 6, read-out: Cmax, Mean (SD)): 84.4 ng/mL
Vd/F (25 mg, 25 mg single dose, N = 6, read-out: Vss/F, Geometric mean (CV)): 228 L
Vd/F (25 mg, 25 mg single dose, N = 6, read-out: Vss/F, Mean (SD)): 240 L
half-life (25 mg, 25 mg single dose, N = 6, read-out: t1/2, Geometric mean (CV) (converted)): 29.8 h
